Test results reported in article PMC8069214, “Synthesis, Biological Evaluation, and Molecular Modeling of Aza-Crown Ethers” (Molecules, 2021).
Counter-ions that a name gives are not always drawn. Like-named read-outs stand apart in the source and are kept apart here.

Assays:
human neutrophils [1] = test: Inhibition of fMLF-induced [Ca2+]i flux in human neutrophils; assay type: cell-based; details: Neutrophil, 10 min preincubation, 5 nM fMLF, N.A. = no activity at < 50 µM, read-out: FPR1/FPR2 Agonist-Induced Δ[Ca^2+]i Neutrophils IC50
Method: (§1) Since these compounds elevated neutrophil [Ca^2+]i, and cytosolic Ca^2+ flux is a key component of neutrophil activation, we evaluated if they could alter neutrophil activation by FPR1 or FPR2 agonists. Neutrophils and FPR-transfected HL60 cells were preincubated for 10 min with crown ether compounds, and [Ca^2+]i flux was stimulated with either an FPR1 agonist (fMLF for human neutrophils and FPR1-HL60 cells) or an FPR2 agonist (WKYMVM for FPR2-HL60 cells).
(§2) Changes in neutrophil intracellular Ca^2+ concentrations ([Ca^2+]i) were measured with a FlexStation 3 scanning fluorometer (Molecular Devices, Sunnyvale, CA, USA). Briefly, human neutrophils were suspended in HBSS^−, loaded with Fluo-4AM at a final concentration of 1.25 μg/mL, and incubated for 30 min in the dark at 37 °C. After dye loading, the cells were washed with HBSS^−, resuspended in HBSS^+, separated into aliquots, and loaded into the wells of flat-bottom, half-area well black microtiter plates (2 × 10^5 cells/well). To assess the direct effects of test compounds on Ca^2+ flux, the compounds were added to the wells (final concentration of DMSO was 1%), and changes in fluorescence were monitored (λex = 485 nm, λem = 538 nm) every 5 s for 240 s at room temperature after addition of the test compound. To evaluate inhibitory effects of the compounds on FPR1/FPR2-dependent Ca^2+ flux, the compounds were added to the wells (final concentration of DMSO was 1%) with cells (human neutrophils or FPR1/FPR2 HL60 cells). The samples were preincubated for 10 min, followed by addition of 5 nM fMLF (for human neutrophils or FPR1-HL60 cells) or 5 nM WKYMVM (for FPR2-HL60 cells). The maximum change in fluorescence, expressed in arbitrary units over baseline, was used to determine the agonist response. Responses were normalized to the response induced by 5 nM fMLF or 5 nM WKYMVM, which were assigned as 100%. Curve fitting (at least five or six points) and calculation of median effective concentration values (EC50 or IC50) were performed by nonlinear regression analysis of the dose–response curves generated using Prism 7 (GraphPad Software, Inc., San Diego, CA, USA). Efficacy was determined by comparing individual responses activated by the test compounds to that induced by a positive control (5 nM fMLF), which was assigned a value of 100%.

FPR1 = biological target: T1, FPR1 (Homo sapiens, UniProt P21462); test: Inhibition of fMLF-induced [Ca2+]i flux in FPR1-HL60 cells; assay type: cell-based; details: 10 min preincubation, 5 nM fMLF; N.A. = no activity at < 50 µM; read-out: FPR1/FPR2 Agonist-Induced Δ[Ca^2+]i FPR1-HL60 IC50
T1 construct: expressed in transfected cells
T1 sequence (P21462 1-350): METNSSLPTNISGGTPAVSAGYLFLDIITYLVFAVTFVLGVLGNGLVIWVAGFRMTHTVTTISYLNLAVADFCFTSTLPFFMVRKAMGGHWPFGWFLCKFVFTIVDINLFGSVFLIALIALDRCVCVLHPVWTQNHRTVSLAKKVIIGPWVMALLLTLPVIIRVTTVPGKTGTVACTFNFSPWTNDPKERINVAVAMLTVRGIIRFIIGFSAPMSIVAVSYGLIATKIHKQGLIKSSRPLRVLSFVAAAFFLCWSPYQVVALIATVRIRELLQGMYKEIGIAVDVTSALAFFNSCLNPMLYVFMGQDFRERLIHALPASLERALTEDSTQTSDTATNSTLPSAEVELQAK
Method: as §1
(§3) Human promyelocytic leukemia HL60 cells stably transfected with FPR1 (FPR1-HL60 cells) or FPR2 (FPR2-HL60 cells) (kind gifts from Dr. Marie-Josephe Rabiet, INSERM, Grenoble, France) were cultured in RPMI 1640 medium supplemented with 10% heat-inactivated fetal calf serum, 10 mM HEPES, 100 μg/mL streptomycin, 100 U/mL penicillin, and G418 (1 mg/mL). Although stable cell lines are cultured under G418 selection pressure, G418 may affect some assays, so it was removed in the last round of culture before assays were performed.
as §2

human neutrophils [2] = test: Ca2+ mobilization assay, direct effect of compounds on [Ca2+]i; assay type: cell-based; details: Neutrophil; for Emax: % of the response induced by 5 nM fMLF, read-out: Efficacy (converted)
Description: We screened 24 aza- and diaza-crown ethers with adamantyl, adamantylalkyl, aminomethylbenzoyl, and ε-aminocaproyl substituents for their Ca^2+ ionophore effects in human neutrophils. To monitor cytoplasmic Ca^2+ levels, we used the fluorescent Ca^2+ indicator Fluo-4, which is a dynamic single-wavelength fluorescent Ca^2+ indicator. Increases in fluorescence intensity (λex = 485 nm, λem = 538 nm) reflect the rise in cytoplasmic Ca^2+ concentrations ([Ca^2+]i; see Materials and Methods).
as §2

human neutrophils [3] = test: fMLF-induced neutrophil chemotaxis (ChemoTx chambers); assay type: cell-based; details: 1 h, 1 nM fMLF, 60 min migration
Method: Human neutrophils were suspended in HBSS^+ containing 2% (v/v) heat-inactivated fetal bovine serum (2 × 10^6 cells/mL), and effects of the compounds on fMLF-induced chemotaxis was analyzed in 96-well ChemoTx chemotaxis chambers (Neuroprobe, Gaithersburg, MD, USA). In brief, neutrophils were preincubated with the indicated concentrations of the test compounds or DMSO for 20 min at room temperature and added to the upper wells of the ChemoTx chemotaxis chambers. The lower wells were loaded with 30 µL of HBSS^+ containing 2% (v/v) fetal bovine serum and the indicated concentrations of test sample plus 1 nM fMLF, DMSO (negative control), or 1 nM fMLF as a positive control. Neutrophils were added to the upper wells and allowed to migrate through the 5.0-µm pore polycarbonate membrane filter for 60 min at 37 °C and 5% CO2. The number of migrated cells was determined by measuring ATP in lysates of transmigrated cells using a luminescence-based assay (CellTiter-Glo; Promega, Madison, WI, USA), and luminescence measurements were converted to absolute cell numbers by comparison of the values with standard curves obtained with known numbers of neutrophils. Curve fitting (at least eight to nine points) and calculation of median effective concentration values (IC50) were performed by nonlinear regression analysis of the dose-response curves generated using Prism 5.

FPR2 = biological target: T2, FPR2 (Homo sapiens, UniProt P25090); test: Inhibition of WKYMVM-induced [Ca2+]i flux in FPR2-HL60 cells; assay type: cell-based; details: 10 min preincubation, 5 nM WKYMVM; N.A. = no activity at < 50 µM; read-out: FPR1/FPR2 Agonist-Induced Δ[Ca^2+]i FPR2-HL60 IC50
T2 construct: expressed in transfected cells
T2 sequence (P25090 1-351): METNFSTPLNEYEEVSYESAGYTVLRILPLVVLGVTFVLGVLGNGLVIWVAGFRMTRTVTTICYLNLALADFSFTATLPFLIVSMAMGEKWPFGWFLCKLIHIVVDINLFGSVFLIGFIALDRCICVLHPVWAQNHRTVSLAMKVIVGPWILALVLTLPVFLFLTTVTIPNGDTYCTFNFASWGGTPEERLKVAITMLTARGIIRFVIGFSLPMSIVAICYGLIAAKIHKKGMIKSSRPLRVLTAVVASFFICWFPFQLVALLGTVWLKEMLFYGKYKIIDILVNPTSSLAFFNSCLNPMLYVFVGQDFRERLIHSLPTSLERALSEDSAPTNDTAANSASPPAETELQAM
Method: as §1, §3, §2

human neutrophils [4] = test: PMA-induced ROS production (L-012 chemiluminescence); assay type: cell-based; details: Neutrophil, 200 nM PMA, N.A. = no activity at < 50 µM
Description: To evaluate if the crown ethers could also disrupt GPCR-independent functional activity, we evaluated the effects of these compounds on phorbol 12-myristate 13-acetate (PMA)-stimulated reactive oxygen species (ROS) production. […] A representative concentration-dependent response for the inhibition of PMA-stimulated neutrophil ROS production by compound 15 is shown in Figure 2B. Since ROS production in neutrophils also requires increased [Ca^2+]i, the results again confirm that the impact of these compounds on Ca^2+ flux kinetics can alter neutrophil function.
ROS production was determined by monitoring L-012-enhanced chemiluminescence, which represents a sensitive and reliable method for detecting superoxide anion (O2^−.) production. Human neutrophils were resuspended at 2 × 10^5 cells/mL in HBSS^+ supplemented with 40 µM L-012. Cells (100 µL) were aliquoted into wells of 96-well flat-bottomed microtiter plates containing test compounds at different concentrations (final DMSO concentration of 1%). Cells were preincubated for 10 min, and 200 nM PMA was added to each well to stimulate ROS production. Luminescence was monitored for 120 min (2-min intervals) at 37 °C using a Fluroscan Ascent FL microtiter plate reader (Thermo Electron, Waltham, MA, USA). The curve of light intensity (in relative luminescence units) was plotted against time, and the area under the curve was calculated as total luminescence. The compound concentration that inhibited ROS production by 50% of the PMA-induced response (positive control) was determined by graphing the percentage inhibition of ROS production versus the logarithm of concentration of test sample (IC50). Each curve was determined using five to seven concentrations.

[5] = Homo sapiens, elevation of [Ca2+]i, Fluo-4, N.A. = no activity was found at concentration < 50 µM, read-out: EC50, effect on [Ca^2+]i flux in human neutrophils
[6] = reciprocal of EC50 in human neutrophils, inactive compounds assigned zero, read-out: 1/[EC50] (converted)

SMILES | melting point [°C] | IC50 (human neutrophils [1]) [µM] | IC50 (FPR1) [µM] | EC50 (human neutrophils [2]; [5]) [µM] | EC50 (human neutrophils [2]; [6]) [µM] | IC50 (human neutrophils [3]) [µM] | IC50 (FPR2) [µM] | Emax (human neutrophils [2]; Homo sapiens) [%] | IC50 (human neutrophils [4]) [µM]
NCCCCCC(=O)N1CCOCCOCCN(C(=O)CCCCCN)CCOCC1 (as salt: hydrochloride) [Compound 22, N,N’-bis(6-aminohexanoyl)-4,10-diaza-15-crown-5 dihydrochloride] | 114 to 118 | – | – | – | – | – | – | – | –
O=C(NC12CC3CC(CC(C3)C1)C2)C12CC3CC(CC(C3)C1)C2 [Compound 2, N-(1-adamantyl)adamantane-1-carboxamide] | 255 to 257 | – | – | – | – | – | – | – | –
O=C(CC12CC3CC(CC(C3)C1)C2)NC12CC3CC(CC(C3)C1)C2 [Compound 3, N,2-di(1-adamantyl)acetamide] | 242 to 244 | – | – | – | – | – | – | – | –
O=C(NC1CCCCC1)C12CC3CC(CC(C3)C1)C2 [Compound 4, N-cyclohexyladamantane-1-carboxamide] | 174 to 176 | – | – | – | – | – | – | – | –
O=C(CC12CC3CC(CC(C3)C1)C2)N1CCOCCOCCOCCOCC1 [Compound 8, N-[2-(1-adamantyl)acetyl]aza-15-crown-5] | – | 2.6 ± 0.4 | 37.1 ± 4.8 | 22.4 ± 4.3 | 22.4 | 13.2 ± 3.8 | – | – | –
O=C(N1CCOCCOc2ccccc2OCCOCC1)C12CC3CC(CC(C3)C1)C2 [Compound 10, N-[1-Oxo-1-(1-adamantyl)methyl]benzoaza-15-crown-5] | 111 to 113 | 11.2 ± 2.7 | 12.2 ± 1.9 | 9.7 ± 2.6 | 9.7 | – | 36.4 ± 5.6 | 25 to 50 | –
O=C(CC12CC3CC(CC(C3)C1)C2)N1CCOCCOc2ccccc2OCCOCC1 [Compound 11, N-[2-(1-adamantyl)acetyl]benzoaza-15-crown-5] | 141 to 142 | 9.4 ± 0.6 | – | 15.6 ± 4.4 | 15.6 | 12.8 ± 5.3 | 29.1 ± 3.2 | 25 to 50 | –
O=C(N1CCOCCN(C(=O)C23CC4CC(CC(C4)C2)C3)CCOCC1)C12CC3CC(CC(C3)C1)C2 [Compound 12, N,N’-bis[1-oxo-1-(1-adamantyl)methyl]-4,10-diaza-12-crown-4] | – | 4 ± 1.4 | – | 23.8 ± 7.6 | 23.8 | 15.7 ± 4.2 | – | 25 to 50 | –
O=C(N1CCOCCOCCN(C(=O)C23CC4CC(CC(C4)C2)C3)CCOCCOCC1)C12CC3CC(CC(C3)C1)C2 [Compound 16, N,N’-bis[1-oxo-1-(1-adamantyl)methyl]-4,13-diaza-18-crown-6] | – | 3.4 ± 0.8 | 7.3 ± 2.6 | 15.7 ± 3.8 | 15.7 | 5.3 ± 0.4 | 30.7 ± 6.4 | 25 to 50 | –
C1COCCN(CC23CC4CC(CC(C4)C2)C3)CCOCCN(CC23CC4CC(CC(C4)C2)C3)CCO1 [Compound 19, N,N’-bis[(1-adamantyl)methyl]-4,10-diaza-15-crown-5] | 74 to 78 | – | – | – | – | – | – | – | –
C1COCCN(CCC23CC4CC(CC(C4)C2)C3)CCOCCOCCN(CCC23CC4CC(CC(C4)C2)C3)CCO1 [Compound 21, N,N’-bis[2-(1-adamantyl)ethyl]-4,13-diaza-18-crown-6] | – | 10.2 ± 2.6 | 9.6 ± 2.1 | 11.3 ± 3.1 | 11.3 | – | 28.2 ± 2.6 | 25 to 50 | 15.3 ± 1.8
